Assay results taken from ChEMBL document CHEMBL4411309, “Discovery of 2-substituted-N-(3-(3,4-dihydroisoquinolin-2(1H)-yl)-2-hydroxypropyl)-1,2,3,4-tetrahydroisoquinoline-6-carboxamide as potent and selective protein arginine methyltransferases 5 inhibitors: Design, synthesis and biological evaluation” (Eur J Med Chem, 2019).

Experiments:
MV4-11 [1] = test: Antiproliferative activity against human MV4-11 cells supplemented with fresh medium containing compound every 4 days measured on day 8 by Celltiter-glo luminescent cell viability assay; type: functional
MV4-11 [2] = test: Antiproliferative activity against human MV4-11 cells supplemented with fresh medium containing compound every 4 days measured on day 12 by Celltiter-glo luminescent cell viability assay; type: functional
PRMT5/MEP50 complex = PRMT5/MEP50 complex (Homo sapiens, UniProt O14744); test: Inhibition of recombinant human N-terminal FLAG-tagged PRMT5 (2 to end residues)/human N-terminal His-tagged MEP50 (2 to end residues) expressed in HEK293F cells using H4 peptide as substrate preincubated for 15 mins followed by substrate and [3H]SAM addition and measured after 1 hr by scintillation counting method
Sequence of PRMT5/MEP50 complex (O14744 whole entry): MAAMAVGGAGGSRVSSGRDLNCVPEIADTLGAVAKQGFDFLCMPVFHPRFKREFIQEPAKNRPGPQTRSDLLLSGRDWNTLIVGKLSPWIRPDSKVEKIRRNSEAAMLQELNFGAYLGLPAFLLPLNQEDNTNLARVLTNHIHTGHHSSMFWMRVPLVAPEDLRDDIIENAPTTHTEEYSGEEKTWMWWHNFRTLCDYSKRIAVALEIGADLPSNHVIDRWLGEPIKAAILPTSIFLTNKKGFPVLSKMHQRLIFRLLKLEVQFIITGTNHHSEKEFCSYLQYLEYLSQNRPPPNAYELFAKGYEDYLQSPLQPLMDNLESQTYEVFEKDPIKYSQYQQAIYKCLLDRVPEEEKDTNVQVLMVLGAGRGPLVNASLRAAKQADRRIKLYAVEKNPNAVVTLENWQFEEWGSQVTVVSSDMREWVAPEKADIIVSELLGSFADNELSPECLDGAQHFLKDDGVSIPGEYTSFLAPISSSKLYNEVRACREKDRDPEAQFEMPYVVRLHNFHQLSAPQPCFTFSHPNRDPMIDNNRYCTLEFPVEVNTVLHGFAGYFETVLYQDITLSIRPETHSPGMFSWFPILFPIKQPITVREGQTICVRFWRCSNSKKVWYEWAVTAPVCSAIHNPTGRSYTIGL
Sequence of PRMT5/MEP50 complex (Q9BQA1 whole entry, further chain): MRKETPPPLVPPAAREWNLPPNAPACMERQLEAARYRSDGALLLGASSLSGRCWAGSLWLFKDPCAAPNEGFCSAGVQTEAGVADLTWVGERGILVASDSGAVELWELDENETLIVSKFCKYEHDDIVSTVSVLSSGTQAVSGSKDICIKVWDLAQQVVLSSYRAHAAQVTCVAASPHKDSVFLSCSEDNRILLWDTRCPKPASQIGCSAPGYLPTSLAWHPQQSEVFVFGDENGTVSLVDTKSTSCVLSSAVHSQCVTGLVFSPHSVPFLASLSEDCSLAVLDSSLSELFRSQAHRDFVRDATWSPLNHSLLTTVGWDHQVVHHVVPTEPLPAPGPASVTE

[3] = AUC in Sprague-Dawley rat at 10 mg/kg, po administered via gavage by LC-MS/MS analysis; type: ADME, organism-based; conditions: in vivo
[4] = Cmax in Sprague-Dawley rat at 10 mg/kg, po administered via gavage by LC-MS/MS analysis; type: ADME, organism-based; set-up: dose 10 mg/kg, route oral; conditions: in vivo
[5] = Tmax in Sprague-Dawley rat at 10 mg/kg, po administered via gavage by LC-MS/MS analysis; type: ADME, organism-based; conditions: in vivo
[6] = Elimination half life in Sprague-Dawley rat at 10 mg/kg, po administered via gavage by LC-MS/MS analysis; type: ADME, organism-based; conditions: in vivo, read-out: beta t1/2 (converted)
[7] = biological target: Protein arginine N-methyltransferase 5 (Homo sapiens) (UniProt O14744); test: Inhibition of PRMT5 in human MV411 cells assessed as reduction in SmD3 methylation after 4 days by Western blot analysis; type: cell-based
Sequence of Protein arginine N-methyltransferase 5 (Homo sapiens) (O14744 whole entry): as the sequence (O14744 whole entry) above

| GI50 (MV4-11 [1]) | GI50 (MV4-11 [2]) | IC50 (PRMT5/MEP50 complex) | SMILES | further results |
| --- | --- | --- | --- | --- |
| 253 nM | 110 nM | 45 nM | O=C(NCC(O)CN1CCc2ccccc2C1)c1cc2c(s1)CCN(C(=O)c1ccncc1)C2 (stereo unspecified) | – |
| – | – | 40 nM | CN(C)c1ccc(C(=O)N2CCc3ccc(C(=O)NCC(O)CN4CCc5ccccc5C4)cc3C2)cc1 (stereo unspecified) | – |
| 322 nM | 178 nM | 22 nM | O=C(NCC(O)CN1CCc2ccccc2C1)c1cc2c(s1)CCN(C(=O)c1ccc3ccccc3c1)C2 (stereo unspecified) | – |
| 70 nM | 36 nM | 17 nM | CN(C)c1ccc(C(=O)N2CCc3cc(C(=O)NCC(O)CN4CCc5ccccc5C4)ccc3C2)cc1 (stereo unspecified) | – |
| 375 nM | 209 nM | 91 nM | O=C(NCC(O)CN1CCc2ccccc2C1)c1cc2c(s1)CCN(S(=O)(=O)c1ccccc1)C2 (stereo unspecified) | – |
| 213 nM | 187 nM | 59 nM | O=C(NC[C@@H](O)CN1CCc2ccccc2C1)c1ccc2c(c1)CCN(C(=O)c1ccc(Br)cc1)C2 | – |
| 199 nM | 126 nM | 30 nM | O=C(NCC(O)CN1CCc2ccccc2C1)c1cc2c(s1)CCN(C(=O)c1ccc(F)cc1)C2 (stereo unspecified) | – |
| – | – | 240 nM | O=C(NCC(O)CN1CCc2ccccc2C1)c1cc2c(s1)CCN(Cc1ccccc1)C2 (stereo unspecified) | – |
| – | – | 1900 nM | CN1CCc2[nH]c(C(=O)NCC(O)CN3CCc4ccccc4C3)cc2C1 (stereo unspecified) | – |
| 201 nM | 141 nM | 19 nM | O=C(NCC(O)CN1CCc2ccccc2C1)c1cc2c(s1)CCN(C(=O)c1ccc([N+](=O)[O-])cc1)C2 (stereo unspecified) | – |
| 212 nM | 106 nM | – | O=C(NC[C@H](O)CN1CCc2ccccc2C1)c1cc(NC2COC2)ncn1 | – |
| 314 nM | 166 nM | 31.5 nM | O=C(NCC(O)CN1CCc2ccccc2C1)c1cc2c(s1)CCN(C(=O)c1cccc(F)c1)C2 (stereo unspecified) | – |
| 75 nM | 53 nM | 11 nM | CN(C)c1ccc(C(=O)N2CCc3cc(C(=O)NC[C@H](O)CN4CCc5ccccc5C4)ccc3C2)cc1 | – |
| – | – | 475 nM | CN1CCc2sc(C(=O)NCC(O)CN3CCc4ccccc4C3)cc2C1 (stereo unspecified) | – |
| 169 nM | 101 nM | 23 nM | Cc1c(C(=O)NCC(O)CN2CCc3ccccc3C2)sc2c1CN(C(=O)c1ccc(N(C)C)cc1)CC2 (stereo unspecified) | – |
| 239 nM | 160 nM | 25 nM | O=C(NCC(O)CN1CCc2ccccc2C1)c1cc2c(s1)CCN(C(=O)c1ccco1)C2 (stereo unspecified) | – |
| 333 nM | 213 nM | 33 nM | COc1ccc(C(=O)N2CCc3cc(C(=O)NC[C@@H](O)CN4CCc5ccccc5C4)ccc3C2)cc1 | – |
| 304 nM | 185 nM | 47 nM | O=C(NCC(O)CN1CCc2ccccc2C1)c1cc2c(s1)CCN(C(=O)CCc1ccccc1)C2 (stereo unspecified) | – |
| – | – | 130 nM | O=C(NCC(O)CN1CCc2ccccc2C1)c1cc2c(s1)CCN(C1CCCCC1)C2 (stereo unspecified) | – |
| 216 nM | 85.6 nM | 20 nM | COc1ccc(C(=O)N2CCc3sc(C(=O)NCC(O)CN4CCc5ccccc5C4)cc3C2)cc1 (stereo unspecified) | – |
| 324 nM | 168 nM | 37 nM | O=C(NCC(O)CN1CCc2ccccc2C1)c1cc2c(s1)CCN(C(=O)c1cccs1)C2 (stereo unspecified) | – |
| 184 nM | 154 nM | 39 nM | O=C(NCC(O)CN1CCc2ccccc2C1)c1cc2c(s1)CCN(C(=O)c1ccccc1)C2 (stereo unspecified) | – |
| 147 nM | 162 nM | 23 nM | O=C(NCC(O)CN1CCc2ccccc2C1)c1cc2c(s1)CCN(C(=O)c1ccc(Cl)cc1)C2 (stereo unspecified) | – |

| GI50 (MV4-11 [1]) | GI50 (MV4-11 [2]) | IC50 (PRMT5/MEP50 complex) | SMILES | further results |
| --- | --- | --- | --- | --- |
| – | – | 44 nM | O=C(NCC(O)CN1CCc2ccccc2C1)c1cc2c(s1)CCN(C(=O)c1ccc(N3CCC3)cc1)C2 (stereo unspecified) | – |
| 436 nM | 172 nM | 60 nM | CC(c1ccccc1)N1CCc2sc(C(=O)NCC(O)CN3CCc4ccccc4C3)cc2C1 (stereo unspecified) | – |
| 193 nM | 89 nM | 19 nM | CC(=O)c1ccc(C(=O)N2CCc3sc(C(=O)NCC(O)CN4CCc5ccccc5C4)cc3C2)cc1 (stereo unspecified) | – |
| – | – | 1900 nM | CN1CCc2oc(C(=O)NCC(O)CN3CCc4ccccc4C3)cc2C1 (stereo unspecified) | – |
| – | – | – | CN(C)c1ccc(C(=O)N2CCc3cc(C(=O)NC[C@H](O)CN4CCc5ccccc5C4)ccc3C2)cc1.Cl | AUC [3]: 15.8 ng·h/mL; Cmax [4]: 14.3 ng/mL; Tmax [5]: 20 min; half-life [6]: 56.7 min |
| 181 nM | 66 nM | 18 nM | O=C(NCC(O)CN1CCc2ccccc2C1)c1cc2c(s1)CCN(C(=O)c1ccc(Br)cc1)C2 (stereo unspecified) | – |
| – | – | 1200 nM | CN1CCc2sc(C(=O)NCC(O)CN3CCc4ccccc4C3)nc2C1 (stereo unspecified) | – |
| 261 nM | 124 nM | 45 nM | O=C(NCC(O)CN1CCc2ccccc2C1)c1cc2c(s1)CCN(C(=O)c1ccccc1F)C2 (stereo unspecified) | – |
| 256 nM | 147 nM | 50 nM | O=C(NCC(O)CN1CCc2ccccc2C1)c1cc2c(s1)CCN(C(=O)Cc1ccccc1)C2 (stereo unspecified) | – |
| – | – | – | COc1ccc(C(=O)N2CCc3cc(C(=O)NC[C@H](O)CN4CCc5ccccc5C4)ccc3C2)cc1.Cl | AUC [3]: 94.6 ng·h/mL; Cmax [4]: 102 ng/mL; Tmax [5]: 25 min; half-life [6]: 128 min |
| – | – | 1100 nM | CCCN1CCc2sc(C(=O)NCC(O)CN3CCc4ccccc4C3)cc2C1 (stereo unspecified) | – |
| 204 nM | 134 nM | 49 nM | O=C(NCC(O)CN1CCc2ccccc2C1)c1cc2c(s1)CCN(C(=O)c1ccc(C(F)(F)F)cc1)C2 (stereo unspecified) | – |
| 415 nM | 186 nM | 19 nM | CC(C)(C)c1ccc(C(=O)N2CCc3sc(C(=O)NCC(O)CN4CCc5ccccc5C4)cc3C2)cc1 (stereo unspecified) | – |
| 135 nM | 110 nM | 32.5 nM | Cc1ccc(C(=O)N2CCc3sc(C(=O)NCC(O)CN4CCc5ccccc5C4)cc3C2)cc1 (stereo unspecified) | – |
| – | – | 460 nM | O=C(NCC(O)CN1CCc2ccccc2C1)c1cc2c(s1)CCN(C1CCOCC1)C2 (stereo unspecified) | – |
| 37 nM | 23 nM | 13 nM | COc1ccc(C(=O)N2CCc3cc(C(=O)NC[C@H](O)CN4CCc5ccccc5C4)ccc3C2)cc1 | – |
| 45 nM | 34 nM | 11 nM | O=C(NCC(O)CN1CCc2ccccc2C1)c1ccc2c(c1)CCN(C(=O)c1ccc(Br)cc1)C2 (stereo unspecified) | – |
| – | – | 260 nM | O=C(NCC(O)CN1CCc2ccccc2C1)c1cc2c(s1)CCN(c1ccccc1)C2 (stereo unspecified) | – |
| 197 nM | 143 nM | 23 nM | CN(C)c1ccc(C(=O)N2CCc3sc(C(=O)NCC(O)CN4CCc5ccccc5C4)cc3C2)cc1 (stereo unspecified) | – |
| 258 nM | 135 nM | 25 nM | N#Cc1ccc(C(=O)N2CCc3sc(C(=O)NCC(O)CN4CCc5ccccc5C4)cc3C2)cc1 (stereo unspecified) | – |
| – | – | – | O=C(NC[C@H](O)CN1CCc2ccccc2C1)c1ccc2c(c1)CCN(C(=O)c1ccc(Br)cc1)C2 | inhibition [7]: Dose-dependent effect |
| 35 nM | 32 nM | 23 nM | COc1ccc(C(=O)N2CCc3cc(C(=O)NCC(O)CN4CCc5ccccc5C4)ccc3C2)cc1 (stereo unspecified) | – |
| 128 nM | 92 nM | 17 nM | CN(C)c1ccc(C(=O)N2Cc3ccc(C(=O)NCC(O)CN4CCc5ccccc5C4)cc3C2)cc1 (stereo unspecified) | – |

| SMILES | GI50 (MV4-11 [1]) | GI50 (MV4-11 [2]) | IC50 (PRMT5/MEP50 complex) | further results |
| --- | --- | --- | --- | --- |
| O=C(NCC(O)CN1CCc2ccccc2C1)c1cc2c(s1)CCN(C(=O)Oc1ccccc1)C2 (stereo unspecified) | – | – | 50 nM | – |
